The record followed here is patent publication US20250304537A1 (Repare Therapeutics Inc., priority 2022, published 2025).

pIC50: −log10 of the molar value.

The test system of the first assay is PKMYT1 (CDK1 pThr14) in FUOV1 cells. As to the kind of experiment: PKMYT1 cell-based activity assay, CDK1 pThr14 AlphaLISA in FUOV1 cells. The settings on record: 2 h, 2 h compound incubation, read-out: FUOV-1 CDK1 pThr14 IC50. On the procedure: To determine compound IC50 (PKMYT1 cell-based activity assay, CDK1 pThr14 AlphaLISA), FUOV1 cells were plated into a 96-well TC-treated culture plate at 50000 cells/well in a final volume of 100 μL of media. The plates were then allowed to equilibrate in a biological safety cabinet for 30 minutes before being placed in a humidified incubator at 37 C and 5% CO2 overnight. The next day, 2 μL of PKMYT1 inhibitors or DMSO were diluted in 400 μL of warmed culture media in a 96-well block using a Biomek FX liquid handler. Compounds were mixed in media and then 25 μL was dispensed into each well of the 96-well cell plate. Plates were centrifuged at 300 g for 10 seconds and then placed in the incubator for 2 hours. After the 2-hour incubation with compound, media was removed via aspiration using a multichannel pipette. 30 μL of 1× AlphaLISA lysis buffer (Perkin Elmer) supplemented with protease and phosphatase inhibitors as well as 1 mM PMSF, was added to each well. Plates were rotated at 500 g for 20 minutes to facilitate lysis. Plates were then sealed with aluminum foil and frozen at −80° C. for at least 1 hour. Lysates were thawed at 37° C. for 10 minutes, then 10 μL of each lysate was transferred in duplicate to a white 384-well assay plate. Antibody mixture was prepared in 1× AlphaLISA assay buffer (Perkin Elmer) containing antibodies (5 nM final concentration for rabbit pThr14-CDK1 from Abcam #ab58509 and mouse total CDK1 from ThermoFisher Scientific #33-1800). 5 μL of antibody mixture was added to each well of the assay plate. The assay plate was sealed and stored at 4° C. overnight. The next day, AlphaLISA bead mixture (Perkin Elmer) was prepared in 1× AlphaLISA assay buffer. Anti-rabbit IgG Acceptor (Perkin Elmer #AL104C) and anti-mouse IgG Donor beads (Perkin Elmer #AS104D) were prepared to a concentration of 80 μg/ml in assay buffer. 5 μL of bead mixture was added to each well of the assay plate (20 μg/ml final concentration for each bead). The plate was protected from light and incubated for 2 hours at room temperature. After a 2-hour incubation with beads, the plate was read using the Perkin Elmer EnVision Multimode plate reader with excitation at 680 nm and emission at 615 nm.
A general note: In Alpha technology, singlet oxygen from a donor bead excites a nearby acceptor bead.
The pIC50 is the IC50 on a negative log10 scale, so that one unit is a factor of ten. Consider `Cc1ccc2[nH]ncc2c1-c1nc(-c2ccc(F)cc2Nc2nncs2)nc(C(N)=O)c1N` [Compound 579], for which the pIC50 was 7.89. Take `Cc1ccc2[nH]ncc2c1-c1nc(-c2ccc(F)cc2Nc2cccc(C#N)c2)nc(C(N)=O)c1N` [Compound 580, 5-amino-2-(2-((3-cyanophenyl)amino)-4-fluorophenyl)-6-(5-methyl-1H-indazol-4-yl)pyrimidine-4-carboxamide]: the pIC50 was 7.36. On the same count and under the same terms, the figure for `Cc1ccc2[nH]ncc2c1-c1nc(-c2ccc(F)cc2Nc2nccs2)nc(C(N)=O)c1N` [Compound 581] is 7.40; for `Cc1ccc2[nH]ncc2c1-c1nc(-c2cccnc2NC2CCCOC2)nc(C(N)=O)c1N` (centres unmarked) [Compound 582] it is 7.82; for `CSc1nccc(Nc2cc(F)ccc2-c2nc(C(N)=O)c(N)c(-c3c(C)ccc4[nH]ncc34)n2)n1` [Compound 583] it is 6.91.

As to `Cc1ccc2[nH]ncc2c1-c1nc(-c2ccc(F)cc2Nc2ccnc(C)c2C)nc(C(N)=O)c1N` [Compound 584], the pIC50 is 7.74. Turning to `Cc1ccc2[nH]ncc2c1-c1nc(-c2ccc(F)cc2Nc2ccnc(C(F)(F)F)c2)nc(C(N)=O)c1N` [Compound 585], the pIC50 was 6.90.

Consider `Cc1cc(Nc2cc(F)ccc2-c2nc(C(N)=O)c(N)c(-c3c(C)ccc4[nH]ncc34)n2)cc(C#N)n1` [Compound 586], for which the pIC50 was 7.12.

As for `Cc1cnc(Nc2cc(F)ccc2-c2nc(C(N)=O)c(N)c(-c3c(C)ccc4[nH]ncc34)n2)s1` [Compound 587], the pIC50 is 6.76. As to `Cc1csc(Nc2cc(F)ccc2-c2nc(C(N)=O)c(N)c(-c3c(C)ccc4[nH]ncc34)n2)n1` [Compound 588], the pIC50 is 7.35. On the same count and under the same terms, the figure for `Cc1ccc2[nH]ncc2c1-c1nc(-c2ccc(F)cc2Nc2ccccc2F)nc(C(N)=O)c1N` [Compound 589] is 6.95. Same read-out and setting: the figure for `Cc1ccc2[nH]ncc2c1-c1nc(-c2ccc(F)cc2Nc2ccncc2C#N)nc(C(N)=O)c1N` [Compound 590] is 8.10. The same measure, in the same setting: the value for `Cc1ccc2[nH]ncc2c1-c1nc(-c2cccnc2NC2(C)CCOC2)nc(C(N)=O)c1N` (centres unmarked) [Compound 591] was 7.66; that for `Cc1ccc2[nH]ncc2c1-c1nc(-c2cccnc2NC2CCOC(C)(C)C2)nc(C(N)=O)c1N` (centres unmarked) [Compound 592] was 6.22; that for `Cc1ccc2[nH]ncc2c1-c1nc(-c2cccnc2NCC2CCOCC2)nc(C(N)=O)c1N` [Compound 593] was 6.53. For the compound `Cc1ccc2[nH]ncc2c1-c1nc(-c2cccnc2NC[C@H]2CCOC2)nc(C(N)=O)c1N` [Compound 594], the pIC50 is 7.44. Still for that read-out and setting: the figure for `Cc1ccc2[nH]ncc2c1-c1nc(-c2cccnc2NC2CCOCC2(C)C)nc(C(N)=O)c1N` (centres unmarked) [Compound 596] is 7.14; for `Cc1ccc2[nH]ncc2c1-c1nc(-c2cccnc2NC2CCSCC2)nc(C(N)=O)c1N` [Compound 597] it is 7.31. In the case of `COc1ncc(F)c(Nc2cc(F)ccc2-c2nc(C(N)=O)c(N)c(-c3c(C)ccc4[nH]ncc34)n2)n1` [Compound 627], the pIC50 is 7.92. The same measure, in the same setting: the value for `Cc1ccc(-c2nc(C(N)=O)c(N)c(-c3c(C)ccc4[nH]ncc34)n2)c(Nc2nnccc2C)n1` [Compound 628] was 7.39. The same measure, in the same setting: the figure for `Cc1ccc2[nH]ncc2c1-c1nc(-c2cccnc2Nc2ccccc2Cl)nc(C(N)=O)c1N` [Compound 629] is 6.80. Regarding `Cc1ccc2[nH]ncc2c1-c1nc(-c2cccnc2Nc2cccc(C#N)c2)nc(C(N)=O)c1N` [Compound 630], the pIC50 is 6.82.

Turning to `Cc1ccc2[nH]ncc2c1-c1nc(-c2cccnc2Nc2cccc(S(N)(=O)=O)c2)nc(C(N)=O)c1N` [Compound 631], the pIC50 is 7.02.

Regarding `COc1ccccc1Nc1ncccc1-c1nc(C(N)=O)c(N)c(-c2c(C)ccc3[nH]ncc23)n1` [Compound 632], the pIC50 was 6.22. On the same count and under the same terms, the value for `Cc1ccc2[nH]ncc2c1-c1nc(-c2ccc(F)cc2Nc2cc(C(C)(C)O)ccn2)nc(C(N)=O)c1N` [Compound 633] was 6.00; that for `Cc1cccc(Nc2ncccc2-c2nc(C(N)=O)c(N)c(-c3c(C)ccc4[nH]ncc34)n2)c1` [Compound 634] was 6.24. Same read-out and setting: the value for `Cc1ccc2[nH]ncc2c1-c1cc2c(oc3ccc(OC4CCOCC4)nc32)c(C(N)=O)c1N` [Compound 635] was 6.40. As to `COc1ccc(-c2nc(C(N)=O)c(N)c(-c3c(C)ccc4[nH]ncc34)n2)c(Nc2ncccn2)c1` [Compound 636], the pIC50 was 7.01.

As to `Cc1ccc2[nH]ncc2c1-c1nc(-c2cc(Cl)ccc2Nc2ncccn2)nc(C(N)=O)c1N` [Compound 637], the pIC50 was 6.62. The same measure, in the same setting: the value for `Cc1ccc2[nH]ncc2c1-c1nc(-c2cccnc2Nc2cccc(Cl)c2)nc(C(N)=O)c1N` [Compound 638] was 6.15. Same read-out and setting: the value for `Cc1ccc2[nH]ncc2c1-c1nc(-c2ccc(F)cc2Nc2ncnc(C)c2C#N)nc(C(N)=O)c1N` [Compound 639] was 6.92.

Turning to `Cc1ccc2[nH]ncc2c1-c1nc(-c2ccc(F)cc2Nc2nccnc2C)nc(C(N)=O)c1N` [Compound 640], the pIC50 is 8.70. Still for that read-out and setting: the value for `Cc1ccc2[nH]ncc2c1-c1nc(-c2cccnc2Nc2ccc(F)nc2F)nc(C(N)=O)c1N` [Compound 641] was 6.41; that for `Cc1ccc2[nH]ncc2c1-c1nc(-c2cccnc2NCC2COCCO2)nc(C(N)=O)c1N` (centres unmarked) [Compound 642] was 6.33. On the same count and under the same terms, the figure for `Cc1ccc2[nH]ncc2c1-c1nc(-c2cccnc2N[C@@H]2CCOC[C@@H]2F)nc(C(N)=O)c1N` [Compound 643] is 8.15. Consider `Cc1ccc2[nH]ncc2c1-c1nc(-c2cccnc2N[C@H]2CCOC[C@H]2F)nc(C(N)=O)c1N` [Compound 644], for which the pIC50 is 8.00. Still for that read-out and setting: the figure for `Cc1ccc2[nH]ncc2c1-c1nc(-c2ccc(C#N)cc2Nc2ncccn2)nc(C(N)=O)c1N` [Compound 645] is 7.92; for `Cc1ccc(Nc2ncccn2)c(-c2nc(C(N)=O)c(N)c(-c3c(C)ccc4[nH]ncc34)n2)c1` [Compound 646] it is 7.04; for `Cc1ccc2[nH]ncc2c1-c1nc(-c2cccnc2N[C@@H]2CCOC[C@H]2F)nc(C(N)=O)c1N` [Compound 647] it is 7.55. Still for that read-out and setting: the value for `Cc1ccc2[nH]ncc2c1-c1nc(-c2cccnc2N[C@H]2CCOC[C@@H]2F)nc(C(N)=O)c1N` [Compound 648] was 7.29; that for `Cc1ccc2[nH]ncc2c1-c1nc(-c2cccnc2NC[C@H]2CCO2)nc(C(N)=O)c1N` [Compound 649] was < 5.00; that for `Cc1ccc2[nH]ncc2c1-c1nc(-c2cccnc2NC[C@@H]2CCO2)nc(C(N)=O)c1N` [Compound 650] was 6.75. Same read-out and setting: the value for `Cc1ccc2[nH]ncc2c1-c1nc(-c2cccnc2NC[C@@H]2CCCOC2)nc(C(N)=O)c1N` [Compound 651] was 6.89; that for `Cc1ccc2[nH]ncc2c1-c1cc2c(oc3ccc(N4CCOCC4)nc32)c(C(N)=O)c1N` [Compound 652] was 6.58. For `Cc1ccc(-c2nc(C(N)=O)c(N)c(-c3c(C)ccc4[nH]ncc34)n2)c(Nc2ncccn2)c1` [Compound 653], the pIC50 was 7.21. Same read-out and setting: the figure for `Cc1ccc2[nH]ncc2c1-c1nc(-c2ccc(Cl)cc2Nc2ncccn2)nc(C(N)=O)c1N` [Compound 654] is 7.11. Still for that read-out and setting: the figure for `Cc1ccc2[nH]ncc2c1-c1nc(-c2ccc(F)cc2Nc2ncncc2C#N)nc(C(N)=O)c1N` [Compound 655] is 8.40; for `COc1cccc(Nc2ncccc2-c2nc(C(N)=O)c(N)c(-c3c(C)ccc4[nH]ncc34)n2)c1` [Compound 656] it is 6.28; for `Cc1ccccc1Nc1ncccc1-c1nc(C(N)=O)c(N)c(-c2c(C)ccc3[nH]ncc23)n1` [Compound 657] it is 7.15. Regarding `Cc1ccc2[nH]ncc2c1-c1nc(-c2cccnc2Nc2cccc(F)n2)nc(C(N)=O)c1N` [Compound 659], the pIC50 was 6.73.

Turning to `Cc1ccc2[nH]ncc2c1-c1nc(-c2cccnc2Nc2nc(F)ccc2F)nc(C(N)=O)c1N` [Compound 660], the pIC50 was 8.70.

Take `Cc1ccc2[nH]ncc2c1-c1nc(-c2cccnc2NCC2(C)COC2)nc(C(N)=O)c1N` [Compound 661]: the pIC50 is 6.42. The same measure, in the same setting: the figure for `Cc1ccc2[nH]ncc2c1-c1nc(-c2cccnc2N2CCOCC2)nc(C(N)=O)c1N` [Compound 662] is < 5.00; for `Cc1ccc2[nH]ncc2c1-c1nc(-c2ccc(F)cc2Nc2cccc(F)c2)nc(C(N)=O)c1N` [Compound 663] it is 6.44. On the same count and under the same terms, the value for `Cc1ccncc1Nc1cc(F)ccc1-c1nc(C(N)=O)c(N)c(-c2c(C)ccc3[nH]ncc23)n1` [Compound 664] was 7.39.

The same assay, now with this note: 2 h compound incubation, read-out: FUOV-1 CDK1 pThr14 IC50.
For the compound `Cc1ccc2[nH]ncc2c1-c1nc(-c2cccnc2Nc2cccnc2)nc(C(N)=O)c1N` [Compound 595], the pIC50 is 5.81.
